# According to patent US7294643B2, “UK-1 analogues: methods of preparation and use” (Board of Regents, The University of Texas System, priority 2002, dated 2007):
# Like-named read-outs stand apart in the source and are kept apart here.
# How the values were obtained:
# HL60 cells = experiment: alamarBlue cytotoxicity assay, HL60; type: cell-based, human; details: Homo sapiens
# Experimental: (§1) Cytotoxicity Assays. Cell culture cytotoxicity assays were performed using the. alamarBlue method, as described by Ahmed et al., J. Immun. Methods 1994, 170, 211-224, which is incorporated herein by reference. Briefly, aliquots of 100 μL of cell suspension (1.0-2.5×10^3 cells) was placed in 96-well microtiter plates in an atmosphere of 5% CO2 at 37° C. After 24 hours, 100 μL of culture medium and 2 μL of compound in vehicle (culture media with 40% pyridine) or vehicle alone were added, and the plates incubated an additional 72 hours. The final pyridine concentration in all cases was 0.4%; at this pyridine concentration there was no affect on the growth of cells compared to cells in culture media without added pyridine. […] After the culture media had been removed from each well, 200 μL of fresh media and 20 μL of 90% alamarBlue reagent were added, followed by an additional 6 h incubation. The fluorescent intensity was measured using a Spectrafluor Plus plate reader with excitation at 530 nm and emission at 590 nm. Results are reported as IC50 values, the average concentration required to produce a decrease of fluorescent intensity of 50% relative to vehicle-treated controls in two separate determinations.
# [1] = Metal ion binding by continuous variation, Zn2+; details: for Association constant for metal ion binding: Zn^2+, methanol, 1:1 complex
# Experimental: (§2) Previous work indicated the metal ion binding mechanism of UK-1, so the method of continuous variation was used to determine the ability of selected UK-1analogues to bind a variety of metal ions. Methanolic solutions of UK-1 or UK-1 analogues and metal ion salts [Ca(NO3)2, Mg(NO3)2, Zn(NO3)2, or Fe(NO3)3] at various molar ratios, and 20 μM combined total concentration, were prepared and the absorbance at 418 nm was determined. […] Compound 2.1 does bind with Ca^2+ and Zn^2+ better than UK-1.
# (§3) Continuous variation plots. A 100 μM solution of UK-1 or analogue and 100 AM solutions of Ca(NO3)2, Mg(NO3)2, Zn(NO3)2, or Fe(NO3)3 were prepared in methanol. From these stock solutions, 15 samples (1 mL) of varying mole fraction of the metal ion were prepared at a constant, combined concentration of 20 μM for the ligand and the metal ion. The change in absorbance was monitored from 500 to 200 nm for each sample using as a reference a 1 mL solution containing the same concentration of ligand as the sample being measured but without the metal ion. The maximum absorbance change was typically around 418 nm but varied somewhat for each metal ion. The absorbance at 418 nm was plotted as a function of the mole fraction of the metal ion and the maximum absorbance change was determined. The absorbance of a sample containing the metal ion concentration corresponding to this maximum change and a 15 fold excess of metal ion at this ligand concentration, subtracted from a reference containing the same concentration of ligand but no metal ion was used to normalize the curve and obtain the conditional formation constant as described in the paper to Likussar, W.; Boltz, D. F. Anal. Chem. 1971, 43, 1265-1272, which is incorporated herein by reference.
# HT-29 cells = experiment: alamarBlue cytotoxicity assay, HT-29; type: cell-based; details: Homo sapiens; HT-29, alamarBlue, 72 h
# Experimental: as §1
# MCF-7 cells = experiment: alamarBlue cytotoxicity assay, MCF-7; type: cell-based; details: Homo sapiens, MCF7; MCF-7, alamarBlue, 72 h
# Experimental: as §1
# PC-3 cells = experiment: alamarBlue cytotoxicity assay, PC-3; type: cell-based, human; details: Homo sapiens, PC-3, 72 h, PC-3, alamarBlue
# Experimental: as §1
# [2] = alamarBlue cytotoxicity, range over four cell lines; type: cell-based; details: human
# Experimental: as §1, with “hours.” for “hours. The final pyridine concentration in all cases was 0.4%; at this pyridine concentration there was no affect on the growth of cells compared to cells in culture media without added pyridine.”, “nm.” for “nm. Results are reported as IC50 values, the average concentration required to produce a decrease of fluorescent intensity of 50% relative to vehicle-treated controls in two separate determinations.”
# [3] = Metal ion binding by continuous variation, Fe3+; details: Fe^3+, methanol, 1:1 complex
# Experimental: as §2, §3
# [4] = Metal ion binding by continuous variation, Mg2+; details: for Association constant for metal ion binding: Mg^2+, methanol, 1:1 complex
# Experimental: as §2, §3
# [5] = Metal ion binding by continuous variation, Ca2+; details: Ca^2+, methanol, 1:1 complex
# Experimental: as §2, §3
# [6] = test system: double-stranded DNA oligonucleotide; experiment: DNA binding by ESI-MS; design: key: MetalDepend.: all ligand-DNA complex ions also contained a metal ion.; None: no ligand-DNA complex ions observed.; MetalIndepend.: ligand-DNA and ligand-DNA-metal ion complex ions observed; details: ligand-DNA complex ions, presence or absence of added NiCl2
# [7] = test system: Staphylococcus aureus ATCC 29213; experiment: Antimicrobial bioassay, S. aureus; type: cell-based; details: Staphylococcus aureus, ATCC29213
# Experimental: (§4) Antimicrobial Bioassay: Staphylococcus aureus ATCC 29213 and methicillin-resistant S. aureus ATCC 43300 (MRS) were obtained from the American Type Culture Collection (Rockville, Md.) and stored on agar slants at 4° C. until needed. Susceptibility testing was performed using a modified version of the NCCLS methods: “Methods for Dilution Antimicrobial Susceptibility Tests for Bacteria that Grow Aerobically,” M7-A4, Vol. 17, No. 2, NCCLS, (1997) and “Reference Method for Broth Dilution Antifungal Susceptibility Testing of Yeasts; Approved Standard,” M27-A, Vol. 17, No. 9, NCCLS, (1997), both of which are incorporated herein by reference. Microorganisms were subcultured prior to the assay by suspending cells from the slant in Eugon broth (BBL, Maryland) and incubating for 24 hours at 37° C. Inocula were prepared by diluting the subcultured organism in its incubation broth after comparison to the 0.5 McFarland Standard (a BaSO4 suspension) to afford final inocula ranges of S. aureus: 1.0-5.0×10^5 and MRS: 0.2-6.0×10^5 CFU/ml. Test compounds were dissolved in DMSO, serially-diluted using normal saline, and transferred in duplicate to 96 well flat-bottomed microtiter plates. The microbial inocula were added to the samples to achieve a final volume of 200 μl and final compound concentrations starting with 50 μg/ml. Drug [Ciprofloxacin (ICN Biomedicals, Ohio)] as well as growth and blank (media only) controls were added to each test plate. Plates were read at 630 nm using the EL-340 Biokinetics Reader (Bio-Tek Instruments, Vermont) prior to and after incubation at 37° C. for 24 hours. Percent growth was calculated and plotted versus concentration to afford the IC50, or sample concentration that affords 50% growth of the organism relative to controls.
# [8] = test system: methicillin-resistant S. aureus ATCC 43300; experiment: Antimicrobial bioassay, methicillin-resistant S. aureus; type: cell-based, Staphylococcus aureus; details: Staphylococcus aureus, ATCC43300
# Experimental: as §4
# [9] = alamarBlue cytotoxicity, range over three cell lines; type: cell-based; details: human; range of concentrations required to inhibit growth of MCF-7, HT-29, and PC-3 cells by 50%
# Experimental: as §1
# Cryptococcus neoformans = experiment: Antimicrobial bioassay, Cryptococcus neoformans; type: cell-based
# Pseudomonas aeruginosa = experiment: Antimicrobial bioassay, P. aeruginosa; type: cell-based; details: P. aeruginosa
# Candida albicans = experiment: Antimicrobial bioassay, Candida albicans; type: cell-based
# [10] = test system: gram-positive or gram negative bacteria; details: cited from earlier work
# yeast, or fungi = details: cited from earlier work
# [11] = 50% growth of test organism, NA = no activity observed at concentrations up to 50 μg/mL, read-out: Antibacterial IC50 S. aureus
# [12] = 50% growth of test organism, NA = no activity observed at concentrations up to 50 μg/mL, read-out: Antibacterial IC50 Meth-resist S. aureus
# [13] = Methacilline-resistant Staph. Aureus, growth inhibited by 50%, read-out: Staph. aureus IC50
smiles,measurement,setting,value
"COC(=O)c1cccc2[nH]c(-c3cccc4oc(-c5ccccc5O)nc34)nc12 [Compound 2.1, Methyl 2-[2-(2-hydroxyphenyl)-1,3-benzoxazol-4-yl]-1H-benz imidazole-4-carboxylate]",IC50,"HL60 cells; HL-60, 72 h, HL60, alamarBlue, 72 h",70 µM
same,Association constant for metal ion binding,[1],3.2e+06 M⁻¹
same,IC50,HT-29 cells,> 100 µM
same,IC50,MCF-7 cells,> 100 µM
same,IC50,PC-3 cells,> 100 µM
same,IC50 at 72 h,[2],≥ 70 µM
same,Association constant for metal ion binding,[3],10000 M⁻¹
same,Association constant for metal ion binding,[4],40000 M⁻¹
same,Association constant for metal ion binding,[5],100000 M⁻¹
"COC(=O)c1cccc2oc(-c3ccccc3OCc3ccccc3)nc12 [Compound 2.5, Methyl 2-[2-(benzyloxy)phenyl]-1,3-benzoxazole-4-carboxylate]",IC50 at 72 h,[2],> 100 µM
O=C(O)c1cn(C2CC2)c2cc(N3CCNCC3)c(F)cc2c1=O [Ciprofloxacin],DNA-Binding ESI-MS,[6],MetalIndepend.^f
same,IC50,[7]; [11],0.45 µM
same,IC50,[8]; [12],0.45 µM
same,IC50,[8]; [13],0.45 µg/mL
same,IC50 at 72 h,[9],> 100 µM
"COC(=O)c1cccc2oc(-c3ccccc3O)nc12 [Compound 2.13, Methyl 2-(2-hydroxyphenyl)-benzoxazole-4-carboxylate]",IC50,Cryptococcus neoformans,> 50 µg/mL
same,IC50,"HL60 cells; HL-60, HL60",5.7 µM
same,IC50,Pseudomonas aeruginosa,> 50 µg/mL
same,Association constant for metal ion binding,[1],1.3e+06 M⁻¹
same,DNA-Binding ESI-MS,[6],MetalDepend.^d
same,IC50,HT-29 cells,9.1 µM
same,IC50,MCF-7 cells,1.5 µM
same,IC50,"[7]; S. aureus, read-out: IC50",> 50 µg/mL
same,IC50,Candida albicans,> 50 µg/mL
same,IC50,[8]; [13],> 50 µg/mL
same,IC50,PC-3 cells,0.88 µM
same,IC50 at 72 h,[2],0.88 to 9.1 µM
same,Association constant for metal ion binding,[3],7900 M⁻¹
same,Association constant for metal ion binding,[4],320000 M⁻¹
same,Association constant for metal ion binding,[5],6300 M⁻¹
"O=C(O)c1cccc2oc(-c3ccccc3OCc3ccccc3)nc12 [Compound 2.6, 2-[2-(benzyloxy)phenyl]-1,3-benzoxazole-4-carboxylic acid]",DNA-Binding ESI-MS,[6],MetalIndepend.^f
same,IC50,[7]; [11],43 µM
same,IC50,[8]; [12],29 µM
same,IC50,[8]; [13],29 µg/mL
same,IC50 at 72 h,[9],> 100 µM
same,IC50 at 72 h,[2],> 100 µM
"COC(=O)c1cccc2nc(-c3ccccc3O)oc12 [Compound 2.16, Methyl 2-(2-Hydroxy-phenyl)-benzooxazole-7-carboxylate]",IC50 at 72 h,[2],> 100 µM
Oc1ccccc1-c1nc2ccccc2o1 [drawing 10],DNA-Binding ESI-MS,[6],None^e
same,IC50,[8]; [13],> 50 µg/mL
same,IC50 at 72 h,[9],> 100 µM
COC(=O)c1cccc2oc(-c3cccc4oc(-c5ccccc5OC)nc34)nc12 [MUK-1],activity against Gram-positive and Gram-negative bacteria,[10],have shown activity
same,activity against yeast and filamentous fungi,"yeast, or fungi",active
"Oc1ccccc1-c1nc2ccccc2o1 [Compound 2.17, 2-(2′-hydroxyphenyl)benzoxazole]",Zn^2+ ion complexation,[1]; result in words,does appear to form complexes with Zn^2+
same,IC50 at 72 h,[2],> 100 µM
same,Mg^2+ ion complexation,[4]; result in words,does not appear to complex Mg^2+ ions
"O=C(O)c1cccc2[nH]c(-c3ccccc3OCc3ccccc3)nc12 [Compound 2.9, 2-[2-(benzyloxy)phenyl]-1H-benzimidazole-4-carboxylic acid]",IC50,[7]; [11],102 µM
same,IC50,[8]; [12],102 µM
same,IC50 at 72 h,[2],> 100 µM
O=C(O)c1cccc2oc(-c3cccc4oc(-c5ccccc5O)nc34)nc12 [DMUK-1],activity against Gram-positive and Gram-negative bacteria,[10],have shown activity
